What was measured:
A. baumannii 4123 = assay: Effective dose (ED50, ED95) in bacteremia infection mouse model; format: in vivo; details: Acinetobacter baumannii, 4123, ip; immunosuppressed mice, intraperitoneal 1.0 and 6.0 hours after infection, survival 7.0 days, BLISS method; read-out: ED50 (effective dose that cures 50% infected mice)
Method: In this regard, immunosuppressed mice were used for the following in vivo studies. Immunosuppression was induced by intraperitoneal injection of 200 mg/kg cyclophosphamide 4 days prior to infection. The mice were anesthetized by intraperitoneal injection of 1% pentobarbital (40 mg/kg, sigma). The mice were then infected with A. baumannii 4123 to determine the minimum lethal dose for subsequent effective dose and efficacy testing. Briefly, overnight cultures of A. baumannii 4123 were harvested and suspended in phosphate-buffered saline (PBS). Subsequently, the cyclophosphamide-pretreated mice were injected with 0.3 mL of the bacterial suspension at designated doses (e.g., 1.0×10^8, 2.5×10^8, 5×10^8, 1.0×10^9, 2.0×10^9 CFU/mL, six mice per group) via the tail vein. The minimum lethal dose, the lowest concentration sufficient to cause 100% mortality, was determined from the survival rate of mice at 48 hours post-infection by the BLISS method.
Firstly, a bacterial suspension with the minimum lethal dose (0.3 mL) was introduced to the above described cyclophosphamide-pretreated mice via the tail vein. […] The number of surviving mice in each group was recorded for 7.0 days to estimate ED50 and ED95 via the BLISS method.

[1] = tested on: clinically isolated MDR K. pneumoniae, E. coli, A. baumannii and MRSA strains; assay: MIC by broth microdilution against different types and strains of clinically isolated MDR bacteria; format: cell-based; details: MIC comparison
Method: To facilitate comparison, an antimicrobial guanidinium-based macromolecule without a sugar functional group (identified herein as Dp20), as well as strong antibiotics (including imipenem, vancomycin, ceftriaxone, and gentamycin), were also tested against the clinically isolated pathogens. The MDR clinical isolates were obtained from patients' blood and phlegm. All isolates were identified by routine laboratory methods and stored in 20% (v/v) glycerol at 80° C.
In accordance with the broth microdilution method, MDR microbes including one or more strains of K. pneumoniae, E. coli, A. baumannii, and MRSA were harvested in midexponential growth phase after grown overnight in Mueller-Hinton (MH) agar plates at 37° C. The antimicrobial agents were prepared in Mueller Hinton broth (MHB) at various concentrations. The bacteria suspensions were then diluted with phosphate-buffer saline (PBS), with a potential of Hydrogen (PH) of 7.4) to adjust the turbidity approximately to the Standard McFarland 0.6, which corresponds to the concentration of 1×10^8 colony-forming unit (CFU) per mL (CFU/mL, after which the bacteria suspension was further diluted by 100-fold with MHB (1×10^6 CFU/mL). Subsequently, equal volumes (100 μL) of bacterial suspension and agent solution prepared previously were mixed in each well of a 96-well plate and incubated for 18 hours at 37° C. […]

| Compound | ED50 (A. baumannii 4123) | spectrum of efficacy (Gram-negative / Gram-positive strains) [1] |
| --- | --- | --- |
| C[C@@H](O)[C@H]1C(=O)N2C(C(=O)O)=C(SCCN=CN)C[C@H]12 [imipenem] | 6.1 mg/kg |  |
| CN[C@H](CC(C)C)C(=O)N[C@H]1C(=O)N[C@@H](CC(N)=O)C(=O)N[C@H]2C(=O)N[C@H]3C(=O)N[C@H](C(=O)N[C@H](C(=O)O)c4cc(O)cc(O)c4-c4cc3ccc4O)[C@H](O)c3ccc(c(Cl)c3)Oc3cc2cc(c3O[C@@H]2O[C@H](CO)[C@@H](O)[C@H](O)[C@H]2O[C@H]2C[C@](C)(N)[C@H](O)[C@H](C)O2)Oc2ccc(cc2Cl)[C@H]1O [vancomycin] |  | only demonstrated efficacy Gram-positive strains |

— patent publication US12036236B2, “Antimicrobial guanidinium macromolecules with bacteria targeting moieties” (International Business Machines Corporation, priority 2018, dated 2024)
